# In patent US20240083890A1, “MACROCYCLIC BRANCHED 3-FLUORO-BUT-3-ENAMIDES AS INHIBITORS OF MCL-1” (JANSSEN PHARMACEUTICA NV, priority 2020, published 2024):
# Key:
# [1] = tested on: MOLP-8 human multiple myeloma cell line; test: Caspase-Glo 3/7 apoptosis induction assay in MOLP-8 cells; assay type: cell-based; conditions: Homo sapiens, MOLP-8; caspase-3/7 activation, 2 hours incubation at 37° C.; averaged over all runs on all batches; read-out: MOLP8 AC50
# From the text: MCL-1 is a regulator of apoptosis and is highly over-expressed in tumor cells that escape cell death. The assay evaluates the cellular potency of small-molecule compounds targeting regulators of the apoptosis pathway, primarily MCL-1, Bfl-1, Bcl-2, and other proteins of the Bcl-2 family. Protein-protein inhibitors disrupting the interaction of anti-apoptotic regulators with BH3-domain proteins initiate apoptosis.
# The Caspase-Glo® 3/7 Assay is a luminescent assay that measures caspase-3 and -7 activities in purified enzyme preparations or cultures of adherent or suspension cells. The assay provides a proluminescent caspase-3/7 substrate, which contains the tetrapeptide sequence DEVD. This substrate is cleaved to release aminoluciferin, a substrate of luciferase used in the production of light. Addition of the single Caspase-Glo® 3/7 Reagent in an “add-mix-measure” format results in cell lysis, followed by caspase cleavage of the substrate and generation of a “glow-type” luminescent signal.
# This assay uses the MOLP-8 human multiple myeloma cell line, which is sensitive to MCL-1 inhibition.
# Cell cultures were maintained between 0.2 and 2.0×10^6 cells/mL. The cells were harvested by collection in 50 mL conical tubes. The cells were then pelleted at 500 g for 5 mins before removing supernatant and resuspension in fresh pre-warmed culture medium. The cells were counted and diluted as needed.
# The assay reagent was prepared by transferring the buffer solution to the substrate vial and mixing. The solution may be stored for up to 1 week at 4° C. with negligible loss of signal.
# Compounds were delivered in assay-ready plates (Proxiplate) and stored at −20° C.
# Assays always include 1 reference compound plate containing reference compounds. The plates were spotted with 40 nL of compounds (0.5% DMSO final in cells; serial dilution; 30 μM highest conc. 1/3 dilution, 10 doses, duplicates). The compounds were used at room temperature and 4 μL of pre-warmed media was added to all wells except column 2 and 23. The negative control was prepared by adding 1% DMSO in media. The positive control was prepared by adding the appropriate positive control compound in final concentration of 60 μM in media. The plate was prepared by adding 4 μL negative control to column 23, 4 μL positive control to column 2, and 4 μL cell suspension to all wells in the plate. The plate with cells was then incubated at 37° C. for 2 hours. The assay signal reagent is the Caspase-Glo solution described above, and 8 μL was added to all wells. The plates were then sealed and measured after 30 minutes.
# The activity of a test compound was calculated as percent change in apoptosis induction as follows: • LC=median of the Low Control values • =Central Reference in Screener • =DMSO • =0% • HC=Median of the High Control values • =Scale Reference in Screener • =30 μM of positive control • =100% apoptosis induction
# % Effect (AC50)=100−((sample-LC)/(HC-LC))*100
# % Control=(sample/HC)*100
# % Control min=((sample-LC)/(HC-LC))*100
# Table: Measured AC50 for Representative Compounds of Formula (I). Averaged values are reported over all runs on all batches of a particular compound.
# [2] = molecular target: Mcl-1 (Homo sapiens (Human), UniProt Q07820); test: Terbium labeled Mcl-1 HTRF binding assay, displacement of Cy5-labeled BIM BH3 peptide; conditions: Ki=IC50/(1+[L]/Kd), [L]=8 nM, Kd=10 nM; 25 pM Tb-Mcl-1, 8 nM Cy5 Bim peptide, 60 min; read-out: Tb-MCL1 Ki
# Description: Terbium labeled Myeloid Cell Leukemia 1(Mcl-1) homogeneous time-resolved fluorescence (HTRF) binding assay utilizing the BIM BH3 peptide (H2N—(C/Cy5Mal) WIAQELRRIGDEFN-OH) as the binding partner for Mcl-1.
# This assay evaluated inhibition of the BH3 domain: Mcl-1 interaction by measuring the displacement of Cy5-labeled BIM BH3 peptide (H2N—(C/Cy5Mal) WIAQELRRIGDEFN-OH) in the HTRF assay format.
# The following assay and stock buffers were prepared for use in the assay: (a) Stock buffer: 10 mM Tris-HCl, pH=7.5+150 mM NaCl, filtered, sterilized, and stored at 4° C.; and (b) 1× assay buffer, where the following ingredients were added fresh to stock buffer: 2 mM dithiothreitol (DTT), 0.0025% Tween-20, 0.1 mg/mL bovine serum albumin (BSA). The 1× Tb-Mcl-1+Cy5 Bim peptide solution was prepared by diluting the protein stock solution using the 1× assay buffer (b) to 25 pM Tb-Mcl-1 and 8 nM Cy5 Bim peptide.
# Using the Acoustic ECHO, 100 nL of 100× test compound(s) were dispensed into individual wells of a white 384-well Perkin Elmer Proxiplate, for a final compound concentration of 1× and final DMSO concentration of 1%. Inhibitor control and neutral control (NC, 100 nL of 100% DMSO) were stamped into columns 23 and 24 of assay plate. Into each well of the plate was then dispensed 10 μL of the 1× Tb-Mcl-1+Cy5 Bim peptide solution. The plate was centrifuged with a cover plate at 1000 rpm for 1 minute, then incubated for 60 minutes at room temperature with plates covered.
# The TR-FRET signal was read on an BMG PHERAStar FSX MicroPlate Reader at room temperature using the HTRF optic module (HTRF: excitation: 337 nm, light source: laser, emission A: 665 nm, emission B: 620 nm, integration start: 60 μs, integration time: […]).
# The BMG PHERAStar FSX MicroPlate Reader was used to measure fluorescence intensity at two emission wavelengths—665 nm and 620 nm—and report relative fluorescence units (RFU) for both emissions, as well as a ratio of the emissions (665 nm/620 nm)*10,000. The RFU values were normalized to percent inhibition as follows:
# % inhibition (((NC−IC)−(compound-IC))/(NC−IC))*100
# where IC (inhibitor control, low signal)=mean signal of 1× Tb-MCl-1+Cy5 Bim peptide+inhibitor control or 100% inhibition of Mel-1; NC (neutral control, high signal)=mean signal 1× Tb-MCI-1+Cy5 Bim peptide with DMSO only or 0% inhibition
# An 11-point dose response curve was generated to determine IC50 values (using GenData) based on the following equation:
# Y=Bottom+(Top-Bottom)/(1+10^((log IC50−X)*HillSlope))
# where Y=% inhibition in the presence of X inhibitor concentration; Top=100% inhibition derived from the IC (mean signal of Mcl-1+inhibitor control); Bottom=0% inhibition derived from the NC (mean signal of Mcl-1+DMSO); Hillslope=Hill coefficient; and IC50=concentration of compound with 50% inhibition in relation to top/neutral control (NC).
# In this assay [L]=8 nM and Kd=10 nM
# Representative compounds of the present invention were tested according to the procedure as described above, with results as listed in the Table below (n.d. means not determined).
# Sequence of Mcl-1 (Q07820 whole entry): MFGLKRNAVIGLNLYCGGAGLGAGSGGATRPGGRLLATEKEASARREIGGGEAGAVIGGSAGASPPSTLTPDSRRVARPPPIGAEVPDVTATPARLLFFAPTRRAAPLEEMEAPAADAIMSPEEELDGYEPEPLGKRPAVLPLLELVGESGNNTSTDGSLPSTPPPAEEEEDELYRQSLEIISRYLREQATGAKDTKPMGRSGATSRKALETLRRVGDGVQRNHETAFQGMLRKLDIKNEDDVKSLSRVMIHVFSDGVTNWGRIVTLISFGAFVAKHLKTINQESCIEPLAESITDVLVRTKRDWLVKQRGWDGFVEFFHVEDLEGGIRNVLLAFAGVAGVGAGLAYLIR
SMILES,AC50 [1],Ki [2]
"C[C@@H]1[C@@H](C)C/C=C(\F)C(C(O)COCC2CCOCC2)N2CC[C@H]2CN2C[C@@]3(CCCc4cc(Cl)ccc43)COc3ccc(cc32)C(=O)NS1(=O)=O (single isomer, unassigned) [Compound 5]",238 nM,0.23 nM
C[C@@H]1[C@@H](C)C/C=C(\F)[C@H]([C@@H](C)O)N2CC[C@H]2CN2C[C@@]3(CCCc4cc(Cl)ccc43)COc3ccc(cc32)C(=O)NS1(=O)=O [Compound 1],116 nM,0.326 nM
C[C@H](O)[C@H]1/C(F)=C/C[C@H](C)[C@@H](C)S(=O)(=O)NC(=O)c2ccc3c(c2)N(C[C@@H]2CCN21)C[C@@]1(CCCc2cc(Cl)ccc21)CO3 [Compound 2],122 nM,0.106 nM
C[C@@H]1[C@@H](C)C/C=C(\F)[C@H]([C@@H](C)O)N2CCC[C@H]2CN2C[C@@]3(CCCc4cc(Cl)ccc43)COc3ccc(cc32)C(=O)NS1(=O)=O [Compound 3],217 nM,1.56 nM
C[C@H](O)[C@H]1/C(F)=C/C[C@H](C)[C@@H](C)S(=O)(=O)NC(=O)c2ccc3c(c2)N(C[C@@H]2CCCN21)C[C@@]1(CCCc2cc(Cl)ccc21)CO3 [Compound 4],238 nM,0.236 nM
C[C@@H]1[C@@H](C)C/C=C(\F)[C@H]([C@@H](O)COCC2CCOCC2)N2CC[C@H]2CN2C[C@@]3(CCCc4cc(Cl)ccc43)COc3ccc(cc32)C(=O)NS1(=O)=O [Compound 6],68.5 nM,0.053 nM
COC[C@]1([C@@H]2COC(C)(C)O2)/C(F)=C/C[C@H](C)[C@@H](C)S(=O)(=O)NC(=O)c2ccc3c(c2)N(C[C@@H]2CCN21)C[C@@]1(CCCc2cc(Cl)ccc21)CO3 [Compound 7],134 nM,0.221 nM
CO[C@@H](CO)[C@@]1(CO)/C(F)=C/C[C@H](C)[C@@H](C)S(=O)(=O)NC(=O)c2ccc3c(c2)N(C[C@@H]2CCN21)C[C@@]1(CCCc2cc(Cl)ccc21)CO3 [Compound 8],3960 nM,0.357 nM
C[C@@H]1[C@@H](C)C/C=C(\F)[C@@]2(COC(C)(C)OC[C@@H]2O)N2CC[C@H]2CN2C[C@@]3(CCCc4cc(Cl)ccc43)COc3ccc(cc32)C(=O)NS1(=O)=O [Compound 9],64.8 nM,0.04 nM
C[C@@H]1[C@@H](C)C/C=C(\F)[C@](CO)([C@@H]2COC(C)(C)O2)N2CC[C@H]2CN2C[C@@]3(CCCc4cc(Cl)ccc43)COc3ccc(cc32)C(=O)NS1(=O)=O [Compound 10],553 nM,–
C[C@@H]1[C@@H](C)C/C=C(\F)[C@@]2(COC(C)(C)OC[C@@H]2O)N2CCC[C@H]2CN2C[C@@]3(CCCc4cc(Cl)ccc43)COc3ccc(cc32)C(=O)NS1(=O)=O [Compound 11],96.5 nM,0.172 nM
